Reference: US20250290915A1, “METHOD FOR PREDICTING RESPONSIVENESS TO THERAPY” (CANCERTAIN LIMITED, priority 2022, published 2025)

Experiments:
Format in all cases: cell-based, human
[1] = tested on: Circulating Tumour Cells (CTCs) from a patient with colon cancer (sigmoid colon cancer); test: Drug response score assay on CTCs from blood, Example 8; set-up: key to Drug response score, conc. 1 / Drug response score, conc. 2 / Drug response score, conc. 3 / Drug response score, conc. 4: normalized drug response metric (Gupta et al. 2020)
Experimental: (§1) CD45^+ cells and circulating tumour cells (CTCs) were isolated from a blood sample provided by each subject.
(§2) CD45 separation was performed by adding human CD45 microbeads (50 μl/ml blood), incubating for 15 minutes at 4° C. and then processing using an AutoMACS machine. This separates the blood sample into CD45^+ and CD45^−cells in 2 separate falcons. The falcon tubes are then centrifuged at 1200 rpm for 5 minutes.
(§3) The supernatant was removed from the CD45^−falcon tube, and the CD45^−cells contacted with 100 μl of FcR block and 100 μl of CD326 (EpCAM) MicroBeads, followed by incubation at […] 4° C. for 30 minutes. The CD45^−cells were then processed using an AutoMACS machine to separate the EpCAM positive and negative cells into 2 separate falcon tubes. The EpCAM-cells were discarded. The supernatant was removed from the EpCAM^+ cells, and the cells resuspended in DMEM with 2 μl Cell Tox, 2 μl MT and 2 μl MT. 20 μl of the resuspended pellet was then added to all sample wells excluding a blank. After all wells are added to, a cell count was conducted on the […] to determine the number of circulating tumour cells (CTCs).
(§4) After attachment, an initial imaging step was carried out using the RealTime-Glo™ MT assay from Promega (Catalogue No. G9711)) and the CellTox™ Green Cytotoxicity Assay (Promega, Catalogue No. G8741), carried out according to manufacturer's instructions. Following this initial imagining, the immunotherapeutic and/or chemotherapeutic agents were added to the cell populations as indicated below. After 10 minutes, the imagining step was repeated. The cell populations were then incubated at 37° C., 5% CO2 for 48 hours. The imaging step was then repeated. The cell populations were then re-dosed with the same immunotherapeutic and/or chemotherapeutic agents as indicated below, and incubated at 37° C., 5% CO2 for a further 48 hours. After this second 48 hour incubation, the imagining step was repeated for a final time.
(§5) At the end of this culture period, dose response scores were calculated using a normalized drug response metric as described in Gupta et al. (Communications Biology volume 3, Article number: 42 (2020), https://doi.org/10.1038/s42003-020-0765-z). The start readout for a given immunotherapeutic or chemotherapeutic agent at a given concentration was the to readout for said immunotherapeutic or chemotherapeutic agent at a specified concentration. The end readout for a given immunotherapeutic or chemotherapeutic agent at a given concentration was the final timepoint reading (t96h) for said immunotherapeutic or chemotherapeutic agent at a specified concentration.
(§6) The positive control start readout for a given drug/concentration was the to readout for the corresponding drug at a specified concentration. The positive control end readout for the corresponding drug at a specified concentration was the final timepoint reading (t96h) for the corresponding blank well.
(§7) The negative control start and end readouts for a given immunotherapeutic or chemotherapeutic agent at a given concentration were the to and final timepoint reading (t96h) respectively for blank cell or blank immuno cell well respectively.
(§8) The sensitivity or resistance of a subject's cancer to a given immunotherapeutic or chemotherapeutic agent was determined based on the calculated drug response score as shown in Table 2.
Blood samples from a patient with colon cancer (sigmoid colon cancer) were received on 8 Mar. 2022 and tested using a 9 drug panel.
Chemotherapeutic agents were tested as in Table 24.

[2] = tested on: Circulating Tumour Cells (CTCs) from a patient with lung cancer (adenocarcinoma); test: Drug response score assay on CTCs (with CD45+ cells for immunotherapy) from blood, Example 5; conditions: lung cancer CTCs; for Drug sensitivity as calculated by the assay (interpretation of Drug Response Scores): Table 17
Experimental: as §1, §2
(§9) The supernatant was removed from the CD45^+falcon tube, and the cells resuspended in DMEM with 2 μl Cell Tox, 2 μl MT and 2 μl MT. 20 μl of the resuspended CD45^+ cells was then plated in each well which will contain an immunotherapy treatment.
as §3
as §4, with “The different cell types were each divided equally into populations, depending on the number of drugs/concentrations to be tested and plated on a cell-culture plate pre-coated with a scaffold of polycaprolactone (PCL) electrospun fibres and incubated at 37° C., 5% CO2, for 5 to (typically 10) minutes to facilitate cell attachment. After attachment,” for “After attachment,”
as §5, §6, §7
(§10) The sensitivity or resistance of a subject's cancer to a given immunotherapeutic or chemotherapeutic agent was determined based on the calculated drug response score as shown in Table 2. […]

[3] = tested on: Circulating Tumour Cells (CTCs) from a patient with head and neck cancer (squamous cell carcinoma); test: Drug response score assay on CTCs from blood, Example 6; conditions: for Drug response score, conc. 1: conc. 1: Ifos 0.125 μg/ml, Gemcit 2 μg/ml, Doxo 10 ng/ml, Etop 1 μg/ml, Metho 0.5 μg/ml, Capecit 200 μg/ml, Vinor 20 μg/ml; for Drug response score, conc. 1 / Drug response score, conc. 2 / Drug response score, conc. 3 / Drug response score, conc. 4: CTCs, t96h; for Drug response score, conc. 2: conc. 2: Ifos 0.25 μg/ml, Gemcit 10 μg/ml, Doxo 30 ng/ml, Etop 4 μg/ml, Metho 1 μg/ml, Capecit 300 μg/ml, Vinor 40 μg/ml; for Drug response score, conc. 3: conc. 3: Ifos 5 μg/ml, Gemcit 20 μg/ml, Doxo 90 ng/ml, Etop 20 μg/ml, Metho 2 μg/ml, Capecit 400 μg/ml, Vinor 80 μg/ml; for Drug response score, conc. 4: conc. 4: Ifos 10 μg/ml, Gemcit 40 μg/ml, Doxo 270 ng/ml, Etop 100 μg/ml, Metho 4 μg/ml, Capecit 600 μg/ml, Vinor 200 μg/ml; for effectiveness on Circulating Tumour Cells under laboratory conditions / Drug sensitivity as calculated by the assay (interpretation of Drug Response Scores): head and neck cancer CTCs; for Drug sensitivity as calculated by the assay (interpretation of Drug Response Scores): Table 20
Experimental: as §1, §2, §3
as §4, with “The different cell types were each divided equally into populations, depending on the number of drugs/concentrations to be tested and plated on a cell-culture plate pre-coated with a scaffold of polycaprolactone (PCL) electrospun fibres and incubated at 37° C., 5% CO2, for 5 to (typically 10) minutes to facilitate cell attachment. After attachment,” for “After attachment,”
as §5, §6, §7, §8
Blood samples from a patient with head and neck cancer (squamous cell carcinoma) were received on 11 Mar. 2022 and tested using a 7 drug panel.

[4] = tested on: Circulating Tumour Cells (CTCs) from a patient with colon cancer; test: Drug response score assay on CTCs from blood, Example 2
Experimental: as §1, §2, §3
as §4, with “The different cell types were each divided equally into populations, depending on the number of drugs/concentrations to be tested and plated on a cell-culture plate pre-coated with a scaffold of polycaprolactone (PCL) electrospun fibres and incubated at 37° C., 5% CO2, for 5 to (typically 10) minutes to facilitate cell attachment. After attachment,” for “After attachment,”
as §5, §6, §7, §8
Blood samples from a patient with colon cancer were received on 3 Mar. 2022 and tested using a 1 drug panel.

[5] = tested on: Circulating Tumour Cells (CTCs) from a patient with renal cancer; test: Drug response score assay on CTCs (with CD45+ cells for immunotherapy) from blood, Example 7; set-up: key to Drug response score, conc. 1 / Drug response score, conc. 2 / Drug response score, conc. 3 / Drug response score, conc. 4: normalized drug response metric per Gupta et al. 2020
Experimental: as §1, §2, §9, §3
as §4, with “The different cell types were each divided equally into populations, depending on the number of drugs/concentrations to be tested and plated on a cell-culture plate pre-coated with a scaffold of polycaprolactone (PCL) electrospun fibres and incubated at 37° C., 5% CO2, for 5 to (typically 10) minutes to facilitate cell attachment. After attachment,” for “After attachment,”
as §5, §6, §7, §10

[6] = tested on: Circulating Tumour Cells (CTCs, EpCam+CD45−) from a patient with stage II synovial sarcoma; test: Drug response score assay (RealTime-Glo MT / CellTox Green, PCL scaffold) on CTCs from blood, Example 1; set-up: key to Drug response score, conc. 1 / Drug response score, conc. 2 / Drug response score, conc. 3 / Drug response score, conc. 4: normalized drug response metric per Gupta et al. 2020
Experimental: as §1, §2, §3
as §4, with “The different cell types were each divided equally into populations, depending on the number of drugs/concentrations to be tested and plated on a cell-culture plate pre-coated with a scaffold of polycaprolactone (PCL) electrospun fibres and incubated at 37° C., 5% CO2, for 5 to (typically 10) minutes to facilitate cell attachment. After attachment,” for “After attachment,”
as §5, §6, §7, §8
Blood samples from a patient with stage II synovial sarcoma (suspected spindle cell tumour) were received and tested using a 6 drug panel.
Chemotherapeutic agents were tested as in Table 3.

CCC1=C[C@@H]2CN(C1)Cc1c([nH]c3ccccc13)[C@@](C(=O)OC)(c1cc3c(cc1OC)N(C)[C@H]1[C@@](O)(C(=O)OC)[C@H](OC(C)=O)[C@]4(CC)C=CCN5CC[C@]31[C@@H]54)C2 [Vinorelbine]
Drug response score, conc. 1 ([1]; conc. 1 of each drug as in Table 24, CTCs, t96h): 0.0721 | Drug response score, conc. 2 ([1]; conc. 2 of each drug as in Table 24, CTCs, t96h): −0.6648 | Drug response score, conc. 3 ([1]; conc. 3 of each drug as in Table 24, CTCs, t96h): 0.2340 | Drug response score, conc. 4 ([1]; conc. 4 of each drug as in Table 24, CTCs, t96h): −0.5738 | Drug sensitivity as calculated by the assay (interpretation of Drug Response Scores) ([1]; sigmoid colon cancer CTCs, Table 26): Sensitive (S+) | Drug sensitivity as calculated by the assay (interpretation of Drug Response Scores) [2]: S++ | Drug response score, conc. 1 [3]: 0.6102 | Drug response score, conc. 2 [3]: 0.9691 | Drug response score, conc. 3 [3]: 0.4733 | Drug response score, conc. 4 [3]: 0.8073 | effectiveness on Circulating Tumour Cells under laboratory conditions [3]: Sensitive S+ | Drug sensitivity as calculated by the assay (interpretation of Drug Response Scores) [3]: Sensitive (S+)

N.N.[Cl][Pt][Cl] [Cisplatin]
Drug response score, conc. 1 ([4]; Cisplatin 2 μg/ml, CTCs, t96h): 2.719 | Drug response score, conc. 2 ([4]; Cisplatin 4 μg/ml, CTCs, t96h): 2.874 | Drug response score, conc. 3 ([4]; Cisplatin 10 μg/ml, CTCs, t96h): 3.012 | Drug response score, conc. 4 ([4]; Cisplatin 20 μg/ml, CTCs, t96h): 3.259 | effectiveness on Circulating Tumour Cells under laboratory conditions ([4]; colon cancer CTCs): not effective | Drug sensitivity as calculated by the assay (interpretation of Drug Response Scores) ([4]; colon cancer CTCs, Table 8): Resistant

CN(Cc1cnc2nc(N)nc(N)c2n1)c1ccc(C(=O)N[C@@H](CCC(=O)O)C(=O)O)cc1 [Methotrexate]
Drug sensitivity as calculated by the assay (interpretation of Drug Response Scores) [2]: S++ | Drug response score, conc. 1 [3]: 0.9711 | Drug response score, conc. 2 [3]: 0.9988 | Drug response score, conc. 3 [3]: 1.0559 | Drug response score, conc. 4 [3]: 0.7375 | effectiveness on Circulating Tumour Cells under laboratory conditions [3]: not effective | Drug sensitivity as calculated by the assay (interpretation of Drug Response Scores) [3]: Resistant

Nc1ccn([C@@H]2O[C@H](CO)[C@@H](O)C2(F)F)c(=O)n1 [Gemcitabine]
Drug response score, conc. 1 ([5]; conc. 1: Pembr 20 μg/ml (CTCs + CD45+ cells), Docetax 0.02 μg/ml, Gemcit 2 μg/ml, Topo 5 μg/ml, Etop 1 μg/ml, Eribul 5 μg/ml (CTCs), t96h): −0.1637 | Drug response score, conc. 2 ([5]; conc. 2: Pembr 40 μg/ml (CTCs + CD45+ cells), Docetax 0.2 μg/ml, Gemcit 10 μg/ml, Topo 10 μg/ml, Etop 4 μg/ml, Eribul 10 μg/ml (CTCs), t96h): 0.0725 | Drug response score, conc. 3 ([5]; conc. 3: Pembr 100 μg/ml (CTCs + CD45+ cells), Docetax 2 μg/ml, Gemcit 20 μg/ml, Topo 50 μg/ml, Etop 20 μg/ml, Eribul 20 μg/ml (CTCs), t96h): −0.3154 | Drug response score, conc. 4 ([5]; conc. 4: Pembr 160 μg/ml (CTCs + CD45+ cells), Docetax 10 μg/ml, Gemcit 40 μg/ml, Topo 100 μg/ml, Etop 100 μg/ml, Eribul 40 μg/ml (CTCs), t96h): −0.0871 | effectiveness on Circulating Tumour Cells under laboratory conditions ([5]; renal cancer CTCs): Sensitive S++ | Drug sensitivity as calculated by the assay (interpretation of Drug Response Scores) ([5]; renal cancer CTCs, Table 23): Sensitive (S++) | effectiveness on Circulating Tumour Cells (CTCs) under laboratory conditions [2]: marginally more effective than other agents | Drug sensitivity as calculated by the assay (interpretation of Drug Response Scores) [2]: S++ | Drug response score, conc. 1 [3]: 0.9091 | Drug response score, conc. 2 [3]: 0.8443 | Drug response score, conc. 3 [3]: 0.6925 | Drug response score, conc. 4 [3]: 0.3157 | effectiveness on Circulating Tumour Cells under laboratory conditions [3]: Sensitive S+ | Drug sensitivity as calculated by the assay (interpretation of Drug Response Scores) [3]: Sensitive (S+) | Drug response score, conc. 1 ([6]; conc. 1: Doxo 10 ng/ml, Ifos 0.125 μg/ml, Gemcit 2 μg/ml, Doce 0.02 μg/ml, Carbo 2 μg/ml, Dacarb 1.5 μg/ml, CTCs, t96h, re-dosed at 48 h): 0.9382 | Drug response score, conc. 2 ([6]; conc. 2: Doxo 30 ng/ml, Ifos 0.25 μg/ml, Gemcit 10 μg/ml, Doce 0.2 μg/ml, Carbo 5 μg/ml, Dacarb 3 μg/ml, CTCs, t96h): 0.4695 | Drug response score, conc. 3 ([6]; conc. 3: Doxo 90 ng/ml, Ifos 5 μg/ml, Gemcit 20 μg/ml, Doce 2 μg/ml, Carbo 10 μg/ml, Dacarb 6 μg/ml, CTCs, t96h): 0.5149 | Drug response score, conc. 4 ([6]; conc. 4: Doxo 270 ng/ml, Ifos 10 μg/ml, Gemcit 40 μg/ml, Doce 10 μg/ml, Carbo 20 μg/ml, Dacarb 12 μg/ml, CTCs, t96h): 0.4075 | Drug sensitivity as calculated by the assay (interpretation of Drug Response Scores) ([6]; synovial sarcoma CTCs, Table 5): Sensitive (S+)
